Source: the supplement of paper PMC10331698
± gives the standard deviation of the averaged measurements.

How the values were obtained:
Assay in all cases: level (log10 ratio to DMSO vehicle control); higher = higher biomarker level / cell amount than vehicle control
[1] = compound: O=C(O)C(F)(F)OC(F)(F)C(F)(F)OC(F)(F)F [Perfluoro-3,6-dioxaheptanoic acid]; settings: in DMSO
Experimental: (§1)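 BioMAP Diversity Plus panel of 12 human primary cell co-culture systems (3C, 4H, LPS, SAg, BT, BF4T, BE3C, CASM3C, HDF3CGF, KF3CT, MyoF, Mphg). Compounds were added 1 h before stimulation and left for 24 h (MyoF 48 h; BT 72 h for soluble read-outs or 6 d for IgG). Biomarkers were read by ELISA, cytotoxicity by SRB, PBMC viability and proliferation by Alamar Blue. Each well value was divided by the mean of 8 DMSO control wells on the same plate and log10 transformed; duplicate blinded samples were tested at 4 concentrations.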

[2] = compound: O=C(O)C(F)(F)C(F)(F)C(F)F [4H-Perfluorobutanoic acid]; settings: in DMSO
Experimental: as §1

[3] = compound: O=C(O)C(F)(F)C(F)(F)C(F)(F)C(F)(F)C(F)(F)C(F)(F)F [Perfluoroheptanoic acid]; settings: in DMSO
Experimental: as §1

[4] = compound: FC(F)C(F)(F)COCC1CO1 [((2,2,3,3-Tetrafluoropropoxy)methyl)oxirane]; settings: in DMSO
Experimental: as §1

[5] = compound: NCC(F)(F)C(F)(F)C(F)(F)C(F)(F)C(F)(F)C(F)(F)C(F)(F)F [1H,1H-Perfluorooctylamine]; settings: in DMSO
Experimental: as §1

[6] = compound: OCCCC(F)(F)C(F)(F)C(F)(F)C(F)(F)C(F)(F)C(F)(F)C(F)(F)F [7:3 Fluorotelomer alcohol]; settings: 6700 nM; in DMSO
Experimental: as §1

[7] = compound: O=C(O)C(F)(F)C(F)(F)C(F)(F)C(F)(F)C(F)(F)C(F)(F)C(F)(F)C(F)(F)C(F)(F)F [Perfluorodecanoic acid]; settings: in DMSO
Experimental: as §1

| Test System | level (log10) ([1]; 6700 nM) | level (log10) ([1]; 20000 nM) | level (log10) ([1]; 60000 nM) | level (log10) ([2]; 6700 nM) | level (log10) ([2]; 20000 nM) | level (log10) ([2]; 60000 nM) | level (log10) ([3]; 6700 nM) | level (log10) ([3]; 20000 nM) | level (log10) ([3]; 60000 nM) | level (log10) ([4]; 6700 nM) | level (log10) ([4]; 20000 nM) | level (log10) ([4]; 60000 nM) | level (log10) ([5]; 6700 nM) | level (log10) ([5]; 20000 nM) | level (log10) ([5]; 60000 nM) | level (log10) [6] | level (log10) ([7]; 6700 nM) | level (log10) ([7]; 20000 nM) |
| --- | --- | --- | --- | --- | --- | --- | --- | --- | --- | --- | --- | --- | --- | --- | --- | --- | --- | --- |
| SAg:CXCL9/MIG | 0.006 ± 0.014 | 0.001 ± 0.014 | 0.0055 ± 0.0078 | -0.0115 ± 0.00071 | -0.0035 ± 0.0078 | 0.0095 ± 0.016 | -0.0125 ± 0.0078 | 0.0015 ± 0.0064 | 0.0105 ± 0.011 | -0.002 ± 0.011 | -0.006 ± 0.014 | 0.0065 ± 0.0092 | -0.0035 ± 0.005 | -0.019 ± 0.0057 | -0.01 ± 0.0014 | -0.0145 ± 0.005 | -0.006 ± 0.011 | -0.0025 ± 0.015 |
| LPS:CD106/VCAM-1 | -0.0215 ± 0.023 | -0.007 ± 0.0085 | -0.0105 ± 0.005 | -0.018 ± 0.0071 | -0.0245 ± 0.011 | -0.002 ± 0.025 | -0.014 ± 0.021 | -0.0155 ± 0.025 | -0.013 ± 0.025 | 0.0015 ± 0.036 | -0.024 ± 0.0071 | -0.032 ± 0.042 | -0.006 ± 0.023 | -0.015 ± 0.013 | -0.0135 ± 0.0092 | -0.031 ± 0.0085 | 0.0015 ± 0.0035 | -0.001 ± 0.0014 |
| SAg:PBMC Cytotoxicity | -0.0035 ± 0.029 | 0.002 ± 0.0042 | 0.013 ± 0.0028 | -0.0205 ± 0.015 | 0.002 ± 0.0042 | 0.017 ± 0.033 | 0.0255 ± 0.0021 | 0.0095 ± 0.019 | 0.0195 ± 0.026 | 0.031 ± 0.021 | -0.006 | 0.0205 ± 0.023 | 0.032 ± 0.025 | 0.018 ± 0.013 | -0.129 ± 0.27 | -0.0315 ± 0.018 | 0.032 ± 0.0028 | 0.0625 ± 0.061 |
| LPS:CD40 | -0.0055 ± 0.012 | -0.0295 ± 0.039 | -0.024 ± 0.038 | -0.0365 ± 0.022 | -0.0355 ± 0.021 | 0.015 ± 0.031 | -0.0135 ± 0.043 | 0.0055 ± 0.00071 | -0.0515 ± 0.079 | 0.009 | -0.006 ± 0.0057 | -0.012 ± 0.017 | -0.0195 ± 0.019 | -0.0095 ± 0.023 | -0.022 ± 0.04 | 0.0345 ± 0.005 | -0.015 ± 0.16 | -0.0235 ± 0.12 |
| BE3C:CD54/ICAM-1 | -0.032 ± 0.0042 | -0.0125 ± 0.0021 | -0.0325 ± 0.015 | -0.0085 ± 0.0021 | -0.0245 ± 0.00071 | 0.0125 ± 0.033 | -0.007 ± 0.0071 | -0.023 ± 0.0028 | -0.0055 ± 0.022 | 0.011 ± 0.011 | -0.0035 ± 0.0092 | 0.011 ± 0.027 | 0.009 ± 0.0099 | -0.0045 ± 0.012 | 0.017 ± 0.034 | -0.0125 ± 0.00071 | 0.085 | -1.02 ± 0.012 |
| SAg:CD69 | -0.024 ± 0.0085 | -0.013 ± 0.014 | -0.029 ± 0.0028 | -0.0145 ± 0.015 | -0.0165 ± 0.015 | 0.005 ± 0.027 | -0.006 ± 0.0014 | -0.0145 ± 0.0021 | -0.008 ± 0.017 | -0.0225 ± 0.0078 | -0.018 ± 0.014 | 0 ± 0.03 | -0.0095 ± 0.0092 | 0.0005 ± 0.0035 | 0.006 ± 0.016 | -0.026 ± 0.018 | -0.0335 ± 0.015 | -0.062 ± 0.0057 |
| BF4T:CD90 | -0.012 ± 0.0042 | 0.001 ± 0.0099 | -0.011 ± 0.0014 | 0.0045 ± 0.0035 | 0.0095 ± 0.011 | 0.01 ± 0.028 | -0.01 ± 0.0042 | -0.001 ± 0.0014 | -0.0005 ± 0.0021 | -0.006 ± 0.03 | 0.004 ± 0.0057 | 0.014 ± 0.016 | 0.015 ± 0.021 | 0.009 ± 0.0014 | 0.0065 ± 0.012 | -0.004 ± 0.0028 | 0.003 ± 0.0042 | -0.0955 ± 0.0064 |
| BT:sTNF-alpha | 0.0935 ± 0.056 | 0.0375 ± 0.17 | 0.0755 ± 0.036 | -0.0585 ± 0.022 | -0.055 ± 0.0071 | -0.048 ± 0.13 | -0.0045 ± 0.11 | -0.0405 ± 0.05 | -0.064 ± 0.17 | 0.0865 ± 0.025 | 0.0615 ± 0.023 | -0.0195 ± 0.0021 | 0.0435 ± 0.1 | 0.057 ± 0.023 | -0.0375 ± 0.076 | 0.009 ± 0.028 | 0.0625 ± 0.047 | 0.018 ± 0.0099 |
| 4H:CCL2/MCP-1 | -0.0265 ± 0.037 | -0.0345 ± 0.018 | 0.031 ± 0.0085 | -0.066 ± 0.047 | -0.0555 ± 0.029 | -0.0005 ± 0.028 | -0.0115 ± 0.0064 | -0.0165 ± 0.013 | 0.025 ± 0.024 | 0.021 ± 0.023 | -0.0005 ± 0.042 | 0.0235 ± 0.066 | 0.0075 ± 0.028 | -0.0195 ± 0.018 | 0.01 ± 0.044 | 0.025 ± 0.0099 | -0.014 ± 0.0057 | -0.0255 ± 0.03 |
| BE3C:IL-1alpha | -0.035 ± 0.04 | -0.0345 ± 0.032 | -0.0385 ± 0.046 | -0.0325 ± 0.0064 | -0.018 ± 0.025 | -0.0045 ± 0.079 | -0.0185 ± 0.029 | -0.0065 ± 0.03 | 0.0115 ± 0.0064 | 0.0015 ± 0.029 | -0.0015 ± 0.0078 | -0.008 ± 0.014 | -0.002 ± 0.0028 | -0.0285 ± 0.016 | -0.01 ± 0.0014 | -0.002 ± 0.014 | -0.0245 ± 0.00071 | -0.811 ± 0.055 |
| BE3C:CXCL8/IL-8 | -0.041 ± 0.033 | -0.007 ± 0.011 | -0.0155 ± 0.05 | 0.015 ± 0.099 | 0.0165 ± 0.044 | 0.0695 ± 0.071 | 0.033 ± 0.041 | 0.008 ± 0.042 | 0.0205 ± 0.1 | 0.0015 ± 0.00071 | -0.005 ± 0.025 | -0.009 ± 0.021 | -0.017 ± 0.023 | -0.0075 ± 0.025 | -0.005 ± 0.013 | 0.006 ± 0.0028 | -0.0545 ± 0.069 | -0.577 ± 0.023 |
| BE3C:CXCL10/IP-10 | -0.03 ± 0.016 | -0.0115 ± 0.018 | -0.0095 ± 0.0078 | -0.006 ± 0.021 | -0.001 ± 0.0099 | 0.017 ± 0.021 | 0.0055 ± 0.022 | 0.0065 ± 0.0092 | 0.0045 ± 0.011 | -0.007 ± 0.011 | -0.0125 ± 0.016 | 0.002 ± 0.0099 | 0.004 ± 0.0014 | -0.0025 ± 0.0035 | 0.002 ± 0.0085 | 0.011 ± 0.024 | -0.188 ± 0.088 | -1.16 |
